# Tests used:
# Assay type in all cases: cell-based
# [1] = test system: murine cancer cell lines M108, M191, BSQ10, BSQ12.4, BSQ27, BWQ89.3; experiment: Cell viability (CellTiterGlo), IKK2 inhibitors with or without Nec1s and/or ABT-199, FIG. 3 A-F; conditions: 72 hrs; for synergistic killing of cancer cell lines (cell viability): ABT-199 combined with an IKK2 inhibitor (ML120B, BI605906 or PS1145), FIG. 3
# Protocol: (§1) Murine (A-F) and human (G) cell lines were treated with IKK2 inhibitors in the absence or presence of a RIPK1 inhibitor and/or a BCL-2 inhibitor as indicated. Cell viability was measured after 72 hrs using CellTiterGlo assay. The data points represent mean values of independent experiments. A. The murine cell line M108 was treated with the IKK2 inhibitors ML120B, BI605906 and PS1145 in the absence or presence of the RIPK1 inhibitor Nec1s (10 μM or 20 μM, as indicated) and/or the BCL-2 inhibitor ABT-199 (125 nM or 250 nM as indicated). B. The murine cell line M191 was treated with the IKK2 inhibitors ML120B, PS1145 and BI605906 in the absence or presence of the RIPK1 inhibitor Nec1s (10 μM or 20 μM, as indicated) and/or the BCL-2 inhibitor ABT-199 (125 nM or 250 nM as indicated). C. The murine cell line BSQ10 was treated with the IKK2 inhibitors ML120B, PS1145 and BI605906 in the absence or presence of the RIPK1 inhibitor Nec1s (10 μM or 20 μM, as indicated) and/or the BCL-2 inhibitor ABT-199 (125 nM or 250 nM as indicated). D. The murine cell line BSQ12.4 was treated with the IKK2 inhibitors ML120B, PS1145 and BI605906 in the absence or presence of the RIPK1 inhibitor Nec1s (10 μM or 20 μM, as indicated) and/or the BCL-2 inhibitor ABT-199 (125 nM or 250 nM as indicated). E. The murine cell line BSQ27 was treated with the IKK2 inhibitors ML120B, PS1145 and BI605906 in the absence or presence of the RIPK1 inhibitor Nec1s (10 μM or 20 μM, as indicated) and/or the BCL-2 inhibitor ABT-199 (125 nM or 250 nM as indicated). F. The murine cell line BWQ89.3 was treated with the IKK2 inhibitors ML120B, PS1145 and BI605906 in the absence or presence of the RIPK1 inhibitor Nec1s (10 μM or 20 μM, as indicated) and/or the BCL-2 inhibitor ABT-199 (125 nM or 250 nM as indicated). G. The human cell line HBL1 was treated with the IKK2 inhibitors ML120B, PS1145 and BI605906 in the absence or presence of the RIPK1 inhibitor Nec1s (10 μM or 20 μM, as indicated) and/or the BCL-2 inhibitor ABT-199 (125 nM or 250 nM as indicated).
# (§2) The murine MBC M-191, M-190, M-108, and M-552 cell lines were generated by adopting cells from murine Myd88p.L252P/wt;R26LSL.BCL2/wt;CD19Cre/wt tumors to cell culture conditions. BSQ10, BSQ12.4 and BSQ27 are stable cell lines generated from Cd79 bp.Y195H/wt;Myd88p.L252P/wt;R26LSL.BCL2/wt;CD19Cre/wt tumors. BWQ89.3 is a stable cell line derived from a murine Prdm1flox/flox;Myd88p.L252P/wt;R26LSL.BCL2/wt;CD19Cre/wt tumor. The MBC cell lines are derived from tumors spontaneously developing in mice that B cell-specifically express the Myd88 p.L252P mutation (the murine orthologue of the human p.L265P) from the endogenous locus in combination with a strong BCL2 overexpression derived from a Rosa26 knock-in allele. Both MYD88 mutations and BCL2 overexpression are frequently found in ABC-DLBCL and Myd88p.L252P/wt;R26LSL.BCL2/wt;CD19Cre/wt animals (abbreviated MBC) develop an ABC-DLBCL-like disease with high NF-kB activation (17).
# Murine cell lines (FIG. 3 A-F) were cultured in DMEM media (Gibco) containing 10% FCS, 1% penicillin/[…] (Gibco), 6 ml L-glutamine (200 mM, Gibco), 6 ml sodium pyruvate (100 mM, Gibco), 6 ml HEPES (1 M), 6 ml non-essential amino acids (100×, Gibco), and 50 μM 2-mercaptoethanol. […] Cell viability of murine and human cell lines was measured after 72 hrs using CellTiterGlo assay. […]
# [2] = test system: human DLBCL cell line HBL1; experiment: Cell viability (CellTiterGlo), IKK2 inhibitors with or without Nec1s and/or ABT-199, FIG. 3 G; conditions: 72 hrs; for synergistic killing of cancer cell lines (cell viability): ABT-199 combined with an IKK2 inhibitor (ML120B, BI605906 or PS1145), HBL1, FIG. 3
# Protocol: as §1
# Murine cell lines (FIG. 3 A-F) were cultured in DMEM media (Gibco) containing 10% FCS, 1% penicillin/[…] (Gibco), 6 ml L-glutamine (200 mM, Gibco), 6 ml sodium pyruvate (100 mM, Gibco), 6 ml HEPES (1 M), 6 ml non-essential amino acids (100×, Gibco), and 50 μM 2-mercaptoethanol. Cells were plated in opaque 384-well plates at a density of 100.000 cells/ml (30 μl of culture volume) and treated with the indicated compounds dissolved in DMSO using a Tecan D300e digital dispenser. The human DLBCL cell line HBL1 (FIG. 3 G) was cultured in RPMI (Gibco) containing 20% FCS (Gibco) and 1% penicillin/[…] (Gibco) and treated with the indicated compounds dissolved in DMSO using a Tecan D300e digital dispenser. Cell viability of murine and human cell lines was measured after 72 hrs using CellTiterGlo assay. The data points represent mean values of independent experiments.
# [3] = test system: IL-1β production by macrophages; experiment: LPS-induced production of IL-1β by macrophages treated with IKK inhibitors; conditions: pharmacological RIPK1 inhibition
# [4] = test system: murine MBC cell lines M-108, M-191, and M-552; experiment: Cell viability (CellTiter-Glo), ABT-199 and/or ML120B; conditions: ABT-199 combined with ML120B, 72 hours, M108, M191 and M552, FIG. 2
# Protocol: The murine MBC lines M-191, M-190, M-108 and M-552 were treated with ABT-199 and/or IKK2-inhibitor ML120B at the indicated doses for 72 hours and cell viability was measured by CellTiter-Glo®. The illustrations in FIG. 2 represent two independent experiments. To test the pharmacological inhibition potential of IKK2 and BCL-2 to kill lymphoma cells, MBC M-191, M-190, M-108, and M-552 cell lines were cultured in DMEM media (Gibco) containing 10% FCS, 1% penicillin/[…] (Gibco), 6 ml L-glutamine (200 mM, Gibco), 6 ml sodium pyruvate (100 mM, Gibco), 6 ml HEPES (1 M), 6 ml non-essential amino acids (100×, Gibco), 50 μM 2-mercaptoethanol. Then, cell viability assays were used to test the pharmacological inhibition potential of IKK2 (using the inhibitor LY2409881) and BCL-2 (using the inhibitor ABT-199) to kill the MBC M-191, M-190, M-108, and M-552 cell lines. […] After an incubation time of 15 minutes, the luminescence signal was read on a plate reader (Tecan). All conditions were measured in triplicate, randomized across the plate and the DMSO concentration in each well was adjusted to maximum DMSO concentration (0.4%) in all wells, and normalized to untreated conditions. […]
# [5] = test system: MBC M-191, M-190, M-108, and M-552 cell lines (murine ABC-DLBCL cell lines); experiment: Cell viability (CellTiter-Glo), single inhibitors; conditions: single agent, 72 hours, FIG. 1
# Protocol: The murine MBC lines M-191, M-190, M-108 and M-552 were treated with (A) the IKK2 inhibitor LY-2409881 (0, 0.185, 0.556, 1.667, 5, 15 μM) or (B) the BCL-2 inhibitor ABT-199 (0, 11.1, 33.3, 100, 300 nM) for 72 hours and cell viability was measured by CellTiter-Glo®. The illustrations in FIG. 1 represent three independent experiments.
# as §2, with “(17). […]” for “(17).”
smiles,measurement,setting,value
"CN1C(=O)NC(Cc2c[nH]c3c(Cl)cccc23)C1=O (centres unmarked) [Nec1s, 5-((7-chloro-1H-indol-3-yl)methyl)-3-methyl-2,4-imidazolidinedione]",effect of simultaneous RIPK1 inhibitor treatment on the synergizing killing effect of ABT-199 and IKK2 inhibitors,[1]; Nec1s 10 μM or 20 μM,not prevented
same,effect of simultaneous RIPK1 inhibitor treatment on the synergizing killing effect of ABT-199 and IKK2 inhibitors,"[2]; Nec1s 10 μM or 20 μM, HBL1",not prevented
"CN1C(=O)C(Cc2c[nH]c3ccccc23)NC1=S (centres unmarked) [Necrostatin-1, 5-(1H-indol-3-ylmethyl)-3-methyl-2-thioxo-4-imidazolidinone]",LPS-induced production of IL-1β,[3],strongly diminishes
O=C(Nc1cc(Cl)cc2c1[nH]c1cnccc12)c1cccnc1 [PS1145],synergistic killing of cancer cell lines (cell viability),[1],synergize to potentiate killing
same,synergistic killing of cancer cell lines (cell viability),[2],synergize to potentiate killing
"COc1c(Cl)cc2c([nH]c3cnccc32)c1NC(=O)c1cccnc1C [ML120B, N-(6-chloro-7-methoxy-9H-beta-carbolin-8-yl)-2-methylnicotinamide]",synergistic killing of cancer cell lines (cell viability),[4],synergize to potentiate killing
same,synergistic killing of cancer cell lines (cell viability),[1],synergize to potentiate killing
same,synergistic killing of cancer cell lines (cell viability),[2],synergize to potentiate killing
CCC(F)(F)c1cc(N2CCC(S(C)(=O)=O)CC2)nc2sc(C(N)=O)c(N)c12 [BI605906],synergistic killing of cancer cell lines (cell viability),[1],synergize to potentiate killing
same,synergistic killing of cancer cell lines (cell viability),[2],synergize to potentiate killing
CC1(C)CCC(CN2CCN(c3ccc(C(=O)NS(=O)(=O)c4ccc(NCC5CCOCC5)c([N+](=O)[O-])c4)c(Oc4cnc5[nH]ccc5c4)c3)CC2)=C(c2ccc(Cl)cc2)C1 [ABT-199],killing of lymphoma cells (cell viability),[5],strong toxicity
same,synergistic killing of cancer cell lines (cell viability),[4],synergize to potentiate killing
same,synergistic killing of cancer cell lines (cell viability),[1],synergize to potentiate killing
same,synergistic killing of cancer cell lines (cell viability),[2],synergize to potentiate killing

# Source: patent US20250082652A1, “SIGNALLING-PATHWAY INHIBITOR COMBINATIONS FOR USE IN THE TREATMENT OF CANCER DISEASES” (UNIVERSITÄT ZU KÖLN, priority 2022, published 2025)
